Test results reported in patent US20210283139A1, “BIFUNCTIONAL MOLECULES FOR TARGETING UCHL5” (AMPHISTA THERAPEUTICS LTD, priority 2018, published 2021).

Tests used:
Format in all cases: cell-based
[1] = target: T1, Brd4 (Homo sapiens, UniProt O60885); test: Negative SAR: Brd4 immunoblot in HEK293 cells, active vs negative control; details: HEK293, 1 μM, 6 h, three independent treatments
T1 construct: endogenous in cells; host or cells: HEK293, HAP1, MV4-11
Method: (§1) Immunoblotting. proteins were separated by SDS-PAGE on NuPage 4-12% Bis-Tris gels, followed by transfer to Amersham Protran 0.45 NC nitrocellulose membrane (GE Healthcare) using wet transfer. Membranes were blocked using 5% w/v milk in Tris-buffered saline (TBS) with 0.1% Tween-20. Blots were probed (overnight at 4° C.) using anti-Brd2 (Abcam ab139690, 1:2,000 dilution), anti-Brd3 (Abcam ab50818, 1:500 dilution), and anti-Brd4 (Abcam ab128874, 1:1,000 dilution) primary antibodies, as appropriate. The next day, blots were washed with TBST and incubated (1 hr at RT) with anti-Tubulin hFAB-rhodamine (BioRad, 12004166) primary antibody, and either anti-rabbit IRDye 800CW (Licor 1:10,000 dilution) or anti-mouse IRDye 800CW (Licor 1:10,000 dilution) secondary antibody. Blots were developed using a Bio-Rad ChemiDoc MP Imaging System, and band quantification was performed using Image Studio software (LiCor). Band intensities were normalized to the tubulin loading control and reported as % of the average 0.1% DMSO vehicle intensity. Degradation data was plotted and analysed using Prism (Graphpad, version 8).
HEK293 (1×10^6) cells incubated with DMSO, 1 μM 05IB11 or 1 μM 05IB6 for 6 h with a final DMSO concentration of 0.1% v/v. Cells from three independent treatments (n=3) were lysed with RIPA buffer and immunoblotted for Brd4 and β-tubulin.

[2] = target: T2, Brd3 (Homo sapiens, UniProt Q15059); test: Concentration-dependent BET degradation, immunoblot, HEK293 cells; set-up: endogenous in cells; host or cells: HEK293; details: HEK293, Brd3, 6 h treatment, 1 nM-10 μM
Method: (§2) Cell culture. HeLa (CCL-2) and HEK293 (CRL-1573) cells were purchased from ATCC and cultured in DMEM medium (Gibco) supplemented with 10% FBS, 100 μg/mL penicillin/streptomycin and L-glutamine. Cells were grown at 37° C. and 5% CO2, and were kept no longer than 30 passages. All cell lines were routinely tested for mycoplasma contamination using MycoAlert kit from Lonza.
as §1
(§3) HeLa (5×10^5) and HEK293 (1×10^6) cells were seeded in standard 6-well plates (2 mL medium) overnight before treatment with compounds at the desired concentration (1 nM-10 μM), with a final DMSO concentration of 0.1% v/v. After 6 h treatment time, cells were washed with DPBS (Gibco) and lysed using 85 μL RIPA buffer (Sigma-Aldrich) supplemented with cOmplete Mini EDTA-free protease inhibitor cocktail (Roche) and benzonase. Lysates were clarified by centrifugation (20,000g, 10 min, 4° C.) and the total protein content of the supernatant was quantified using a Bradford colorimetric assay. Samples were prepared using equal amounts of total protein and LDS sample buffer (Invitrogen.
(§4) Representative blots in FIG. 3 show depletion of Brd2, Brd3 and Brd4 protein levels following treatment with increasing concentrations of representative compounds. Band intensities were normalized to the β-tubulin loading control and reported as % of the average 0.1% DMSO vehicle intensity, with each point representing mean±SEM of two independent experiments (n=2). Degradation data was plotted and analysed using Prism (Graphpad, version 8)

[3] = target: T3, Brd2 (Homo sapiens, UniProt P25440); test: as above; set-up: endogenous in cells; host or cells: HEK293; details: HEK293, Brd2, 6 h treatment, 1 nM-10 μM; read-out: Dmax (%) maximum degradation observed
Method: as §2, §1, §3, §4

[4] = target: T4, Brd4 (S) (Homo sapiens, UniProt O60885); test: as above; details: 6 h treatment, 1 nM-10 μM, read-out: Dmax (%) maximum degradation observed
T4 construct: endogenous in cells; host or cells: HEK293, HeLa
Method: as §2, §1, §3, §4

[5] = target: T5, Brd4 (L) (Homo sapiens, UniProt O60885); test: as above; details: 6 h treatment, 1 nM-10 μM, read-out: Dmax (%) maximum degradation observed
T5 construct: endogenous in cells; host or cells: HEK293, HeLa
Method: as §2, §1, §3, §4

[6] = target: T4, Brd4 (S); test: Concentration-dependent BET degradation, immunoblot, HeLa cells; details: 6 h treatment, 1 nM-10 μM, read-out: Dmax (%) maximum degradation observed
Method: as §2, §1, §3, §4

[7] = target: T5, Brd4 (L); test: as above; details: 6 h treatment, 1 nM-10 μM, read-out: Dmax (%) maximum degradation observed
Method: as §2, §1, §3, §4

[8] = target: T2, Brd3; test: as above; set-up: endogenous in cells; host or cells: HeLa; details: Brd3, 6 h treatment, 1 nM-10 μM
Method: as §2, §1, §3, §4

[9] = target: T3, Brd2; test: as above; set-up: endogenous in cells; host or cells: HeLa; details: Brd2, 6 h treatment, 1 nM-10 μM, read-out: Dmax (%) maximum degradation observed
Method: as §2, §1, §3, §4

[10] = target: T1, Brd4; test: Mechanistic evaluation of Brd4 degradation in HEK293 cells (degrasyn or I-BET726 pre-treatment); details: 6 h
Method: as §1
(§5) HEK293 (1×10^6) cells were seeded in standard 6-well plates (2 mL medium) overnight before pre-treatment with inhibitors (5 μM degrasyn or 1 μM I-BET726). After a 0.5 h pre-incubation time, cells were subsequently treated with vehicle, 0.1 μM MZ1 or 0.1 μM 05IB9, yielding a final overall DMSO concentration of 0.2% v/v. After 6 h incubation, cells were washed with DPBS (Gibco) and lysed using 85 μL RIPA buffer (Sigma-Aldrich) supplemented with cOmplete Mini EDTA-free protease inhibitor cocktail (Roche) and benzonase. Lysates were clarified by centrifugation (20,000 g, 10 min, 4° C.) and the total protein content of the supernatant was quantified using a Bradford colorimetric assay. Samples were prepared using equal amounts of total protein and LDS sample buffer (Invitrogen).

[11] = target: T1, Brd4; test: Proteasome dependency of Brd4 degradation in HEK293 cells (bortezomib pre-treatment); details: HEK293, 1 μM, 6 h
Method: as §1
as §5, with “10” for “inhibitors (5”, “bortezomib.” for “degrasyn or 1 μM I-BET726).”, “1” for “0.1”, “05IB6,” for “05IB9,”

[12] = target: T1, Brd4; test: Mechanistic evaluation of Brd4 degradation in HAP1 cells (bortezomib, degrasyn or I-BET726 pre-treatment); details: 6 h
Method: as §1
as §5, with “HAP1” for “HEK293”, “(10 μM bortezomib, 5” for “(5”
Representative blots from HAP1 lysates in FIG. 9 show depletion of Brd4 protein levels following 6 h treatment with 0.1 μM 05IB9 or MZ1, in the presence and absence of 5 μM degrasyn and 10 μM bortezomib. Brd4 band intensities were normalized to β-tubulin loading control and reported in FIG. 9B as % of the average 0.1% DMSO vehicle intensity. Each bar is mean±SEM of three independent experiments performed in duplicate (n=3). […] Furthermore, excess […] competes with 05IB9, resulting in reduced degradation of Brd4.

[13] = read-out: Dmax (%) maximum degradation observed

T2 sequence (Q15059 whole entry): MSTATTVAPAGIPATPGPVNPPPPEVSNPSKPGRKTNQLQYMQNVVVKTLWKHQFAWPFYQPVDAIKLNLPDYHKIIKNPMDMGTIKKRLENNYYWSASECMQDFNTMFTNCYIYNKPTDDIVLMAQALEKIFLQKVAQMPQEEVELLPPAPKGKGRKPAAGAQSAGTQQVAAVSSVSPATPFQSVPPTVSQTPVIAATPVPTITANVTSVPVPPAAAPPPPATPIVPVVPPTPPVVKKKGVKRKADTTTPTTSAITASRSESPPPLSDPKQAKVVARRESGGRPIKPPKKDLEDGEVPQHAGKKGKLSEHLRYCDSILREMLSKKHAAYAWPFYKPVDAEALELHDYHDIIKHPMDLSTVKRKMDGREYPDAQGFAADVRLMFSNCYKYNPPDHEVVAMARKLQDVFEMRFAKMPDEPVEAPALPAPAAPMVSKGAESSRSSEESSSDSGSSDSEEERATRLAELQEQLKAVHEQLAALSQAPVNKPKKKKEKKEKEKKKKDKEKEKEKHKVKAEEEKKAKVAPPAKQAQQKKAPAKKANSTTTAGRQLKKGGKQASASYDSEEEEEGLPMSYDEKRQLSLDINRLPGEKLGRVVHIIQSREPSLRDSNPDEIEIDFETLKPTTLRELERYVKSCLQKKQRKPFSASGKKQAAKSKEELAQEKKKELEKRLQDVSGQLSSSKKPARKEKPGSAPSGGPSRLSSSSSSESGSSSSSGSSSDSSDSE
T3 sequence (P25440 whole entry): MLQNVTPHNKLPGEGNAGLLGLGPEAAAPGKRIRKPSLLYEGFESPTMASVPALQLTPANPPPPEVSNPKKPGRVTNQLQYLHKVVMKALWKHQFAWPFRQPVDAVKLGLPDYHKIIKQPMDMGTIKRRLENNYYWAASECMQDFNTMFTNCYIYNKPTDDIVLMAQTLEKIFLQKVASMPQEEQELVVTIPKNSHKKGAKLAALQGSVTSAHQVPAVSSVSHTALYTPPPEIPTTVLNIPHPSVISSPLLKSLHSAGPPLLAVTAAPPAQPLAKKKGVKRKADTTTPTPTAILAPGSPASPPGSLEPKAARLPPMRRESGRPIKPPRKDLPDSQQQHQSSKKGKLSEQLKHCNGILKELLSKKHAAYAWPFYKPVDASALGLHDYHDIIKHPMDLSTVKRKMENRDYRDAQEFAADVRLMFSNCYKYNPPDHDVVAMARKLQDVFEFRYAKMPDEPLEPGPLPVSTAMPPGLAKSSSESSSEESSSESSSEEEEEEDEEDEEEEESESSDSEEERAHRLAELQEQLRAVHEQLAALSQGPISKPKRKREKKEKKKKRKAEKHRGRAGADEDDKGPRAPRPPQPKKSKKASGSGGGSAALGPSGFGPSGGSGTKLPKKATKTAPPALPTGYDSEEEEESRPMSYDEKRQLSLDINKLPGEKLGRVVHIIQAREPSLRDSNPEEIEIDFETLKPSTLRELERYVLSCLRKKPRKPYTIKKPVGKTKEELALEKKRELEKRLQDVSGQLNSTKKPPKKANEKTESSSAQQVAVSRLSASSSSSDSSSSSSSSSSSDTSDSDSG

| Brd4 levels [1] | DC50 [2] | Dmax [2, 13] | Dmax [3] | Dmax [4] | Dmax [5] | Dmax [6] | Dmax [7] | DC50 [8] | Dmax [8, 13] | Dmax [9] | Brd4 degradation in the presence of degrasyn or I-BET726 ([10]; HEK293, 0.1 μM compound, 0.5 h pre-treatment with 5 μM degrasyn or 1 μM I-BET726) | Brd4 protein levels ([10]; HEK293, 0.1 μM) | Brd4 protein levels [11] | Brd4 degradation in the presence of bortezomib or degrasyn ([12]; HAP1, 0.1 μM compound, 0.5 h pre-treatment with 10 μM bortezomib or 5 μM degrasyn) | Brd4 protein levels ([12]; HAP1, 0.1 μM) | Compound |
| --- | --- | --- | --- | --- | --- | --- | --- | --- | --- | --- | --- | --- | --- | --- | --- | --- |
| minimal depletion | ≤ 50 nM | ≤ 25% | ≤ 25% | 26 to 50% | ≤ 25% | ≤ 25% | ≤ 25% | 51 to 500 nM | 26 to 50% | ≤ 25% |  |  |  |  |  | CCCC(NC(=O)/C=C/c1cccc(Br)n1)c1ccc(OCCOCCOCCOCCOCCOCCOCCNC(=O)c2ccc(-c3ccc4c(c3)[C@H](Nc3ccc(Cl)cc3)C[C@H](C)N4C(C)=O)cc2)cc1 (stereo partly shown) [Example 05IB11] |
|  |  |  |  |  |  |  |  |  |  |  | only blocked by I-BET726 | depletion | depletion | only blocked by bortezomib | depletion | Cc1ncsc1-c1ccc(CNC(=O)[C@@H]2C[C@@H](O)CN2C(=O)[C@@H](NC(=O)COCCOCCOCCNC(=O)C[C@@H]2N=C(c3ccc(Cl)cc3)c3c(sc(C)c3C)-n3c(C)nnc32)C(C)(C)C)cc1 [MZ1, reference compound] |
